Experimental data: patent EP4644403A1, “HALOGEN-CONTAINING COMPOUNDS USED FOR CAPPING THE 5' END OF NUCLEIC ACID AND USE THEREOF” (Shenzhen Rhegen Biotechnology Co., Ltd., priority 2023, dated 2024)

Biological target: T1, T7 RNA polymerase (Escherichia phage T7, UniProt P00573)
T1 construct: purchased
Experiment: Capped mRNA synthesis by in vitro transcription with cap analog (product amount, Nanodrop One)
Format: biochemical
Conditions: per 1 mL reaction system; in vitro transcription at 37°C, 4 hours; purified mRNA quantified with Nanodrop One
Description: • a) A plasmid was linearized and a DNA template was purified. • b) Capping analogs of the present invention and Comparative Example 1 Trilink CleanCap, cap analogs of Comparative Example 2 and Comparative Example 3 were used to synthesize mRNA by in vitro transcription, respectively. Comparative Example 1 was commercially purchased, and Comparative Example 2 and Comparative Example 3 were obtained according to the method disclosed in WO2022/036858. [drawing 172]
Table 1 In vitro transcription system
c) During the experiment, the above reagents were fully mixed and incubated at 37°C. After 4 hours, deoxyribonuclease (DNase) was added and incubated for 30 minutes to remove the DNA template. After digestion, LiCl solution was added, precooled and centrifuged at 1,6000 rpm for 15 minutes to remove the supernatant. 70% ethanol was added and centrifuged to remove the supernatant again, and then a certain amount of enzyme-free water was added for storage. […] Table 2 amount (mg) of final product obtained per 1 mL of mRNA synthesis reaction system

T1 sequence (P00573 whole entry): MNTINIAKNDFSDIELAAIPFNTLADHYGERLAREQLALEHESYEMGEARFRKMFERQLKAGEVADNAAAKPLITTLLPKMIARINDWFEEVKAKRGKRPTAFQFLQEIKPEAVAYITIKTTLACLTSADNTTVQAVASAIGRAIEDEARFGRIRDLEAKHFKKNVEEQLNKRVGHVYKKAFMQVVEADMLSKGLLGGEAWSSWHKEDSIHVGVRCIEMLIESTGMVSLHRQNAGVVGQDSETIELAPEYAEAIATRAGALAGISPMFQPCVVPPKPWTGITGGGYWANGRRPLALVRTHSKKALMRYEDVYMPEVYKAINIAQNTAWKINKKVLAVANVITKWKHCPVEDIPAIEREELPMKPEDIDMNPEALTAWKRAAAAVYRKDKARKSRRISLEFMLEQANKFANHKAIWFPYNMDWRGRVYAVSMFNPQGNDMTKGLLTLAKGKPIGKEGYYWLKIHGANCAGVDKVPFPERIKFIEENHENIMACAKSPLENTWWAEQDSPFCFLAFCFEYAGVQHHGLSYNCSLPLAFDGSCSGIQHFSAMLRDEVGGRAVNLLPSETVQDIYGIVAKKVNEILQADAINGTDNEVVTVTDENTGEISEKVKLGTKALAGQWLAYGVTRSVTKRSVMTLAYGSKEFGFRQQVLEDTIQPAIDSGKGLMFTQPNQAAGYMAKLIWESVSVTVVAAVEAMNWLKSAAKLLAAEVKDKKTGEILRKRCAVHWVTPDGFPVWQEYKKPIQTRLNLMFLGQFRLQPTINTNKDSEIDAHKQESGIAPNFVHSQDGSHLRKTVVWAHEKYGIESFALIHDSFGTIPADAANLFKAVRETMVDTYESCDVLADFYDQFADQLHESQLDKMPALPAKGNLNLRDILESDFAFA

C[n+]1cn([C@@H]2O[C@H](COP(=O)(O)OP(=O)(O)OP(=O)(O)OC[C@H]3O[C@@H](n4cnc5c(N)ncnc54)[C@H](O)[C@@H]3OP(=O)(O)OC[C@H]3O[C@@H](n4cnc5c(=O)[nH]c(N)nc54)[C@H](F)[C@@H]3O)[C@@H](O)[C@H]2O)c2nc(N)[nH]c(=O)c21 [Compound 8]
Product amount: amount (mg) of final product obtained per 1 mL of mRNA synthesis reaction system: 4.7 mg

C[n+]1cn([C@@H]2O[C@H](COP(=O)(O)OP(=O)(O)OP(=O)(O)OC[C@H]3O[C@@H](n4ccc(=O)[nH]c4=O)[C@H](F)[C@@H]3OP(=O)(O)OC[C@H]3O[C@@H](n4cnc5c(=O)[nH]c(N)nc54)[C@H](F)[C@@H]3O)[C@@H](O)[C@H]2O)c2nc(N)[nH]c(=O)c21 [Compound 68]
Product amount: amount (mg) of final product obtained per 1 mL of mRNA synthesis reaction system: 5.8 mg
